Reference: paper PMC6367362, “MD001, a Novel Peroxisome Proliferator-activated Receptor α/γ Agonist, Improves Glucose and Lipid Metabolism” (Scientific Reports, 2019)

Experiments:
[1] = molecular target: T1, human HA-PPARγ (Homo sapiens, UniProt P37231); experiment: PPRE luciferase activity assay in HEK293 cells transfected with HA-PPARγ; assay type: cell-based; design: transcriptional activity of PPARγ: dose or concentration left out as unconfirmed; details: HEK293, PPRE-pk-Luc
T1 construct: expressed in transfected cells; host or cells: HEK293
T1 sequence (P37231 1-505): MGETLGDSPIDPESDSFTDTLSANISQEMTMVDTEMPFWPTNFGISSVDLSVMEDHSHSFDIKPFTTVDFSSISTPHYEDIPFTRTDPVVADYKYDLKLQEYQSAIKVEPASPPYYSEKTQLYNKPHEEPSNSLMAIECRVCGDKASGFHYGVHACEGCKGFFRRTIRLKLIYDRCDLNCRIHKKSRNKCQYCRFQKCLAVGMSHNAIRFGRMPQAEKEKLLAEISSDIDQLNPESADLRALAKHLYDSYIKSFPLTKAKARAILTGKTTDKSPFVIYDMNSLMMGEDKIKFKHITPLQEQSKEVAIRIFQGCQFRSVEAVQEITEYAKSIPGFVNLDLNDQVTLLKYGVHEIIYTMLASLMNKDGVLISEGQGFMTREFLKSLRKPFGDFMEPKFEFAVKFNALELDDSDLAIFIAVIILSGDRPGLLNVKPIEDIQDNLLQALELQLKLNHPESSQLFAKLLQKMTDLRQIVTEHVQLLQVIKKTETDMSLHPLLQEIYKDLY
Protocol: Figure 2 MD001 induces the expression of target genes through PPARα and PPARγ activation. HEK293 cells were transiently co-transfected with human HA-PPARα (A) and HA-PPARγ (B) expression vectors along with the reporter plasmid (PPRE-pk-Luc) or control reporter plasmid (pk-Luc) with Renilla vector for 24 h. Cells were treated with MD001 (10 μM), rosiglitazone (rosi) (10 μM) or WY14643 (WY) (10 μM) for 24 h. Luciferase activity was normalised to Renilla luciferase activity as described in the Methods section. **, vs. vehicle. (C) HepG2 cells were treated with MD001 (10 μM) for 24 h, and total RNA was isolated and synthesised into cDNA. Relative expression was quantitated using qRT-PCR. **, vs. vehicle. (D,E) HepG2 cells were transfected with control siRNA, PPARα siRNA (D), or PPARγ siRNA (E) for 48 h and treated with vehicle, WY14643 (10 μM), rosiglitazone (10 μM) or MD001 (10 μM) for 24 h. Subsequently, cells were harvested for total RNA isolation. Relative expression of target genes was quantitated using qRT-PCR. ^#, vs. control siRNA; ^‡, vs. control siRNA/vehicle; ^§, vs. control siRNA/WY; * and **, vs. control siRNA/MD001. Data represent the mean ± SD of three independent experiments. *P < 0.05, **P < 0.01, ^#P < 0.01, ^‡P < 0.01, and ^§P < 0.01.
For transient transfection, cells were transfected with plasmid DNA constructs by polyethylenimine (PEI, Polysciences, Inc., Warrington, PA, USA) according to the manufacturer’s instructions. Transcription activity assays of PPARα and PPARγ in HEK293 cells were performed by co-transfection of HA-PPARα, HA-PPARγ, and peroxisome proliferator-response element (PPRE) reporter plasmid (PPRE-pk-Luc) or control reporter plasmid (pk-Luc) with Renilla vector for 24 h. […] Luciferase activity was measured with the Dual-Luciferase Reporter Assay System (Promega, Madison, WI, USA) and quantified using GloMax (Promega, USA) according to the manufacturer’s protocol. […]
Luciferase activity was measured as described in the Methods section. […]

[2] = tested on: db/db mice; experiment: Oral once-daily administration to diabetic db/db mice
Protocol: (A) Changes in blood glucose levels was monitored in db/db mice administered once a day with vehicle, WY14643 (WY, 20 mg/kg), rosiglitazone (rosi, 20 mg/kg), or MD001 (n = 5–6 per group) as indicated. […] (D–M) The change in various blood metabolites was examined in db/db mice administered once a day with vehicle, WY14643 (WY), rosiglitazone (rosi), or MD001 (n = 5–6 per group). *, **, and ^#, vs. vehicle; ^†, vs. vehicle, MD001(5 mg/kg), and MD001(20 mg/kg). The data represent the mean ± S.D. *P < 0.05, **P < 0.01, ^#P < 0.001, and ^†P < 0.01.
Six-week-old C57BLKS/J-Lepr^db/Lepr^db or wild type C57BL/6J male mice were purchased from Orient Bio, Inc. (Seongnam, Korea) and acclimatised for one week. Mice were randomly grouped and orally administered with vehicle, WY14643 (20 mg/kg), rosiglitazone (20 mg/kg), or MD001 (5 mg/kg or 20 mg/kg) once a day for two months. […] Blood glucose levels were measured at the indicated time point using an OneTouch Ultra Blood Glucose Monitoring System (LifeScan, Inc., Milpitas, CA, USA).
Livers and blood samples were collected from mice in each group.
Tissues specimens including liver, perigonadal adipose tissue, skeletal muscle, spleen, kidney, and heart, were collected from mice in each group, fixed in 10% formalin, and embedded into paraffin. Tissue sections (5 μm) were stained with haematoxylin and eosin (H&E).

[3] = db/db mice, 60 days, rosiglitazone 20 mg/kg, MD001 5 and 20 mg/kg
[4] = db/db mice, once a day for 60 days, rosiglitazone 20 mg/kg
[5] = db/db mice, 20 mg/kg, 60 days, qRT-PCR
[6] = db/db mice, 20 mg/kg, qRT-PCR and immunoblot

With Cc1c(O)cc(O)c2c(-c3ccccc3)c(C(=O)/C=C/c3ccccc3)c(=O)oc12 [MD001] as the compound, how does the “transcription via PPARγ activation (luciferase activity)” value ([1]; 10 μM, 24 h, vs. vehicle) read?
The value was “significantly increased”.

And the “transcriptional activity of PPARγ” value ([1]; 24 h (Supplementary Fig. S2))?
Its value is “promoted simultaneous transcriptional activity”.

What about the “blood glucose levels in intraperitoneal insulin tolerance test (IPITT)” value ([2]; db/db mice) of the same compound?
Its value is “lowered”.

And the body weight gain ([2]; db/db mice, 60 days, compared to vehicle)?
The body weight gain was “no induction of body weight gain”.

What about the RBC count [2, 3] of the same compound?
Its RBC count is “did not decrease”.

What about the “haematocrit (HCT) level” value [2, 3] of the same compound?
The value was “did not decrease”.

What about the “haemoglobin (Hb) level” value [2, 3] of the same compound?
The value was “did not decrease”.

What about the “number of large fat cells (>150 μm in diameter)” value ([2]; db/db mice, adipose tissue H&E) of the same compound?
Its value is “significantly reduced”.

What about the “number of medium fat cells (100~150 μm in diameter)” value ([2]; db/db mice, adipose tissue H&E) of the same compound?
Its value is “significantly increased”.

And the “number of small fat cells (<100 μm in diameter)” value ([2]; db/db mice, adipose tissue H&E)?
The value was “significantly increased”.

And the “increase in fat mass as compared to the vehicle control” value [2, 4]?
The value was “no increase”.

What about the “increase in liver weight as compared to the vehicle control” value [2, 4] of the same compound?
Its value is “no increase”.

And the HDL levels ([2]; db/db mice, oral once a day)?
The HDL levels was “increased”.

What about the LDL levels ([2]; db/db mice, oral once a day) of the same compound?
The LDL levels was “significantly decreased”.

And the “blood FFA” value ([2]; db/db mice, oral once a day)?
The value was “significantly decreased”.

And the “blood TG” value ([2]; db/db mice, oral once a day)?
Its value is “significantly decreased”.

And the “blood alanine aminotransferase (ALT) levels” value ([2]; db/db mice, oral once a day)?
Its value is “significantly reduced”.

And the “blood aspartate aminotransferase (AST) levels” value ([2]; db/db mice, oral once a day)?
Its value is “significantly reduced”.

And the blood insulin ([2]; db/db mice, oral once a day)?
Its blood insulin is “significantly decreased”.

What about the “serum adiponectin (Acrp30) levels” value ([2]; db/db mice, oral once a day) of the same compound?
Its value is “increased”.

What about the total cholesterol levels ([2]; db/db mice, oral once a day) of the same compound?
The total cholesterol levels was “did not affect”.

What about the blood glucose levels ([2]; db/db mice, oral once a day, MD001 5 or 20 mg/kg, WY14643 20 mg/kg, rosiglitazone 20 mg/kg) of the same compound?
The blood glucose levels was “significantly decreased blood glucose levels in a dose-dependent manner”.

What about the “hepatic FFA” value ([2]; db/db mice, 20 mg/kg) of the same compound?
Its value is “significantly reduced”.

And the “hepatic TG” value ([2]; db/db mice, 20 mg/kg)?
Its value is “significantly reduced”.

And the “hepatic steatosis (H&E staining of liver)” value ([2]; db/db mice, 20 mg/kg)?
The value was “reduction in size and number of hepatic lipid droplets in a dose-dependent manner”.

And the “diameter of the glomerular capsule” value ([2]; db/db mice, 20 mg/kg once a day for 60 days)?
Its value is “significantly reduced”.

And the “expression of PEPCK and G6Pase in the liver” value ([2]; db/db mice, 20 mg/kg once a day for 60 days, qRT-PCR)?
Its value is “decreased”.

And the “H&E staining of skeletal muscle” value ([2]; db/db mice, 20 mg/kg, 60 days, compared among vehicle and treated groups)?
The value was “no differences”.

And the “expression of inflammatory genes TNFα, MCP-1 and macrophage-marker genes CD11b, CD11c” value [2, 5]?
The value was “decreased”.

And the “liver expression of hepatic lipogenesis genes ADD1, ACC, FAS” value [2, 5]?
Its value is “decreased”.

And the “skeletal muscle expression of ACOX, CPT, MLYCD, GLUT4, and LPL” value [2, 5]?
Its value is “significantly increased”.

And the “adipose tissue expression of ACOX, CPT, GLUT4, and CD36” value [2, 6]?
The value was “significantly increased”.

And the “liver expression of target genes of PPARα (ACOX, CPT, MLYCD) and PPARγ (GLUT2, GK, CD36)” value [2, 6]?
The value was “significantly increased”.

What about the “blood glucose levels in oral glucose tolerance test (OGTT)” value ([2]; db/db mice, glucose 1 g/kg, eight weeks after drug administration) of the same compound?
Its value is “significantly decreased”.

What about the food ingestion ([2]; wild type C57BL/6J and db/db mice, 3-day food intake) of the same compound?
Its food ingestion is “without changes in food ingestion”.
